Results taken from PMC10746543, “Design principles for cyclin K molecular glue degraders” (Nature Chemical Biology, 2023).
Several values for one entry are separate records, joined by “and”; a condition that tells them apart may be missing. Equal entries are not always repeated.

Legend:
[1] = system: cyclin K–eGFP degradation reporter; test: Cyclin K reporter stability analysis (dual-color cyclin K–eGFP reporter); type: cell-based, human; conditions: for reporter assay signal (normalized): replicates; for Normalized GFP/mCheery: flow source data
In short: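 First, reporter-bearing HEK293T–Cas9 cells are plated at 1 × 10^6 ml^−1. Next, drug or vehicle is added for 5 h. Finally, geometric-mean eGFP and mCherry signals of round, mCherry-positive cells are measured cytometrically, and their ratio is referenced to the DMSO average.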

HEK293T cells = test: Drug sensitivity assay (CellTiter-Glo viability) with or without MLN4924 pretreatment; type: cell-based, human
In short: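 Luminescent ATP read-out (CellTiter-Glo) after 3 days of drug exposure, normalised to DMSO controls. Cells were HEK293T–Cas9, pretreated with 100 nM MLN4924 or DMSO for 2 h before drug dispensing.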

CDK12–cyclin K = CDK12–cyclin K (Homo sapiens, UniProt Q9NYV4); test: Lanthascreen kinase binding assay, CDK12; conditions: for Lanthascreen raw signal, sheet CDK12: duplicates
Description: Lanthascreen experiments were performed using commercially available reagents (Thermo Fisher) and according to the manufacturer’s instructions.

CDK12–cyclin K, sequence (Q9NYV4 713-1052): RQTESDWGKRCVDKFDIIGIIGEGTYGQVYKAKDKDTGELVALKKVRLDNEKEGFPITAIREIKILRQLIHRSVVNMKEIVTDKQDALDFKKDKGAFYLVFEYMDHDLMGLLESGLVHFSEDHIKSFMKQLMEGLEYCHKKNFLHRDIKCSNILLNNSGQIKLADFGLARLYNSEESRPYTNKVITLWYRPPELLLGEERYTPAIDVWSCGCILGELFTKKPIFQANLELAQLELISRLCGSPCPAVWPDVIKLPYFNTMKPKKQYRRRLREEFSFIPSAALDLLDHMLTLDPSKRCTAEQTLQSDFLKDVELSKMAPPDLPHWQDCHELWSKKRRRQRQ
CDK12–cyclin K, sequence (O75909 1-267 partner limits assumed): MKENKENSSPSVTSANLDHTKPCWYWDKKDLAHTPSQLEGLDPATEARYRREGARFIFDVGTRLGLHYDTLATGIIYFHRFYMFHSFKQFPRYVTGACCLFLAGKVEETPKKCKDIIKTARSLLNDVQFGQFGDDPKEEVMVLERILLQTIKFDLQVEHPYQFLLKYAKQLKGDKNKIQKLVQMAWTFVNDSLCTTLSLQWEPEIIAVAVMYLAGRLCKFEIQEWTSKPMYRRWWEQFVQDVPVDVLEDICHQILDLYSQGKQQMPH

DC50 ([1]; source data sheet correlations, read-out: DC50): 0.176 µM
IC50 (CDK12–cyclin K; Lanthascreen, average, Extended Data Fig. 8, read-out: CDK12 IC50): 1.34 µM
Lanthascreen raw signal, sheet CDK12 (CDK12–cyclin K; compound 0.038147 nM, series r13): 0.01141 and 0.01078
Lanthascreen raw signal, sheet CDK12 (CDK12–cyclin K; compound 0.038147 nM, series r49): 0.007974 and 0.007894
Lanthascreen raw signal, sheet CDK12 (CDK12–cyclin K; compound 0.152588 nM, series r13): 0.01172 and 0.01127
Lanthascreen raw signal, sheet CDK12 (CDK12–cyclin K; compound 0.152588 nM, series r49): 0.009529 and 0.009772
Lanthascreen raw signal, sheet CDK12 (CDK12–cyclin K; compound 0.610352 nM, series r13): 0.01156 and 0.01218
Lanthascreen raw signal, sheet CDK12 (CDK12–cyclin K; compound 0.610352 nM, series r49): 0.00969 and 0.009867
Lanthascreen raw signal, sheet CDK12 (CDK12–cyclin K; compound 9.76563 nM, series r13): 0.01168 and 0.01068
Lanthascreen raw signal, sheet CDK12 (CDK12–cyclin K; compound 9.76563 nM, series r49): 0.008416 and 0.00874
Lanthascreen raw signal, sheet CDK12 (CDK12–cyclin K; compound 39.0625 nM, series r13): 0.01187 and 0.01164
Lanthascreen raw signal, sheet CDK12 (CDK12–cyclin K; compound 39.0625 nM, series r49): 0.009257 and 0.00975
Lanthascreen raw signal, sheet CDK12 (CDK12–cyclin K; compound 156.25 nM, series r13): 0.01128 and 0.01164
Lanthascreen raw signal, sheet CDK12 (CDK12–cyclin K; compound 156.25 nM, series r49): 0.009429 and 0.008734
Lanthascreen raw signal, sheet CDK12 (CDK12–cyclin K; compound 625 nM, series r13): 0.01093 and 0.01047
Lanthascreen raw signal, sheet CDK12 (CDK12–cyclin K; compound 625 nM, series r49): 0.007601 and 0.007861
Lanthascreen raw signal, sheet CDK12 (CDK12–cyclin K; compound 2500 nM, series r13): 0.009465 and 0.008988
SMILES: C[C@H](C(=O)Nc1nc2ccccc2[nH]1)N1Cc2ccccc2C1=O [compound 919278]
reporter assay signal (normalized) ([1]; 5 nM): 0.9951 and 0.9832
reporter assay signal (normalized) ([1]; 10.7 nM): 0.9896 and 0.9546
Normalized GFP/mCheery ([1]; 22.9 nM, HEK293T): 0.8457
reporter assay signal (normalized) ([1]; 22.9 nM): 0.9344 and 0.9583
Normalized GFP/mCheery ([1]; 48.9 nM, HEK293T): 0.8139
reporter assay signal (normalized) ([1]; 48.9 nM): 0.9381 and 0.9234
Normalized GFP/mCheery ([1]; 105 nM, HEK293T): 0.8144
reporter assay signal (normalized) ([1]; 105 nM): 0.9087 and 0.8866
reporter assay signal (normalized) ([1]; 224 nM): 0.8755 and 0.8691
Normalized GFP/mCheery ([1]; 478 nM, HEK293T): 0.7219
reporter assay signal (normalized) ([1]; 478 nM): 0.8011 and 0.8332
reporter assay signal (normalized) ([1]; 2190 nM): 0.7799 and 0.7725
reporter assay signal (normalized) ([1]; 4680 nM): 0.7431 and 0.7578
Normalized GFP/mCheery ([1]; 10000 nM, HEK293T): 0.6269
reporter assay signal (normalized) ([1]; 10000 nM): 0.7256 and 0.8167
cyclin K reporter degradation, result in words ([1]; HEK293T): weaker
viability assay signal (normalized) (HEK293T cells; 2 nM, + MLN4924): 1.029 and 0.9647
viability assay signal (normalized) (HEK293T cells; 2 nM, without MLN4924): 1.055 and 1.0418
viability assay signal (normalized) (HEK293T cells; 4.69 nM, + MLN4924): 1.105 and 1.018
viability assay signal (normalized) (HEK293T cells; 4.69 nM, without MLN4924): 1.004 and 1.008
viability assay signal (normalized) (HEK293T cells; 11 nM, + MLN4924): 1.0606 and 0.9151
viability assay signal (normalized) (HEK293T cells; 11 nM, without MLN4924): 1.048 and 1.059
viability assay signal (normalized) (HEK293T cells; 25.7 nM, + MLN4924): 1.025 and 1.119
viability assay signal (normalized) (HEK293T cells; 25.7 nM, without MLN4924): 0.893 and 1.0689
viability assay signal (normalized) (HEK293T cells; 141 nM, + MLN4924): 1.103 and 1.1762
viability assay signal (normalized) (HEK293T cells; 141 nM, without MLN4924): 1.0013 and 1.019
viability assay signal (normalized) (HEK293T cells; 331 nM, + MLN4924): 1.1 and 1.102
viability assay signal (normalized) (HEK293T cells; 331 nM, without MLN4924): 0.8356 and 0.898
viability assay signal (normalized) (HEK293T cells; 4270 nM, + MLN4924): 0.7328 and 0.6837
viability assay signal (normalized) (HEK293T cells; 4270 nM, without MLN4924): 0.374 and 0.3286
viability assay signal (normalized) (HEK293T cells; 10000 nM, + MLN4924): 0.484 and 0.4101
viability assay signal (normalized) (HEK293T cells; 10000 nM, without MLN4924): 0.3001 and 0.3205
EC50 (HEK293T cells; Homo sapiens, HEK-293T, Supplementary Table 2, HEK293T viability, 72 h, compound alone, read-out: Cellular assays EC50): 0.559 µM
Toxicity rescue (HEK293T cells; Supplementary Table 2, MLN4924-mediated cytotoxicity rescue, 10 µM used where n.d.): 749%
